Results taken from ChEMBL document CHEMBL6078724, “Discovery of the first examples of right open reading frame kinase 2 (RIOK2) molecular glue degraders” (Eur J Med Chem, 2025).
Active and inactive are the calls of the source. The calls are words filed in the database; no cut-off is given here.

What was measured:
[1] = target: T1, E3 ubiquitin-protein ligase RNF126/Serine/threonine-protein kinase RIO2 (Homo sapiens, UniProt Q9BVS4+Q9BV68); assay: Molecular glue degradation activity at RNF126/RIOK2 in human MOLT-4 cells assessed as induction protein degradation incubated for 12 hrs by immunoblot analysis; assay type: cell-based
Target sequence in this assay (Q9BVS4 whole entry): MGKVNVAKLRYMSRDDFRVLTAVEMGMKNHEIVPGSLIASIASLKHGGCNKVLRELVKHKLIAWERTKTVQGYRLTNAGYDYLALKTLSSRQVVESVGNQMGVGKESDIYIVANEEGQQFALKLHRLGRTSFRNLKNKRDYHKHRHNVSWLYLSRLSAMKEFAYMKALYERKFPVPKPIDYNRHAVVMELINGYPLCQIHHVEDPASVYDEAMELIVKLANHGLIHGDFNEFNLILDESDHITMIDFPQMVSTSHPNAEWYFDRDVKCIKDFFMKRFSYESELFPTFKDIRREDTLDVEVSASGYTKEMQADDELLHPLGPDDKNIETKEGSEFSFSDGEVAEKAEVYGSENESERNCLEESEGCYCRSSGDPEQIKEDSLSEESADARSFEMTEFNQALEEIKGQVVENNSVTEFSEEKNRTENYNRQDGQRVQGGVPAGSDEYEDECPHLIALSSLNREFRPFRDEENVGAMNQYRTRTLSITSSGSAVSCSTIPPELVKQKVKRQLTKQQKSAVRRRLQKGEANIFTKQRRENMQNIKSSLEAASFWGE
Target sequence in this assay (Q9BV68 whole entry): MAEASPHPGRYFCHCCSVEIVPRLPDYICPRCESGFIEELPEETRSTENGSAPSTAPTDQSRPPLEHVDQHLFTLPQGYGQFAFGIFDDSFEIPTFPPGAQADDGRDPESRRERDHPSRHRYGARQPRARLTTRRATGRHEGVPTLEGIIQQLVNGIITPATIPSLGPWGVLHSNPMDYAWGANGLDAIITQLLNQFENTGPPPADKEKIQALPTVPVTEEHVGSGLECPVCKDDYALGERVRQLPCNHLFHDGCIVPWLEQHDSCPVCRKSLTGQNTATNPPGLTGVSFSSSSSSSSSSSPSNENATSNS

[2] = target: T1, E3 ubiquitin-protein ligase RNF126/Serine/threonine-protein kinase RIO2; assay: Molecular glue degradation activity at RNF126/RIOK2 in human MOLT-4 cells assessed as induction protein degradation incubated for 12 hrs by immunoblot analysis relative to control; assay type: cell-based
Target sequence in this assay (Q9BV68 2-311 partner limits assumed): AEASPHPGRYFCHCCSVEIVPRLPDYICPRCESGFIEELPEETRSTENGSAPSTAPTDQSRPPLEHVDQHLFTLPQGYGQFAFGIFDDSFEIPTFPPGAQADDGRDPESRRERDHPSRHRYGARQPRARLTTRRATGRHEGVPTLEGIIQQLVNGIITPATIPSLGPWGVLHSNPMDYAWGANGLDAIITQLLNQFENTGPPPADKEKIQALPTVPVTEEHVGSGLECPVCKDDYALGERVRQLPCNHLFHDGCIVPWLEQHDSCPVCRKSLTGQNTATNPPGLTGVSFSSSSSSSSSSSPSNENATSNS
Target sequence in this assay (Q9BVS4 whole entry): as the sequence (Q9BVS4 whole entry) above

[3] = target: Serine/threonine-protein kinase RIO2 (Homo sapiens, UniProt Q9BVS4); assay: Binding affinity to RIOK2 (unknown origin) assessed as dissociation constant
Serine/threonine-protein kinase RIO2, sequence (Q9BVS4 whole entry): as above

[4] = tested on: HL-60; assay: Antiproliferative activity against human HL-60 cells incubated for 72 hrs by CCK8 assay; assay type: functional, cell-based; conditions: HL-60, 72 h
[5] = tested on: A549; assay: Antiproliferative activity against human A549 cells incubated for 72 hrs by CCK8 assay; assay type: functional, cell-based; conditions: A549, 72 h
[6] = Antiproliferative activity against mouse NIH3T3 cells incubated for 72 hrs by CCK8 assay; assay type: toxicity, cell-based
[7] = tested on: K562; assay: Antiproliferative activity against human K562 cells incubated for 72 hrs by CCK8 assay; assay type: functional, cell-based; conditions: K562, 72 h
[8] = tested on: U-937; assay: Antiproliferative activity against human U-937 cells incubated for 72 hrs by CCK8 assay; assay type: functional, cell-based; conditions: U-937, 72 h
[9] = target: T1, E3 ubiquitin-protein ligase RNF126/Serine/threonine-protein kinase RIO2; assay: Molecular glue degradation activity at RNF126/RIOK2 in human MOLT-4 cells assessed as decrease in mTOR level at 500 nM incubated for 12 hrs by immunoblot analysis; assay type: cell-based
Target sequence in this assay (Q9BV68 2-311 partner limits assumed): as the sequence (Q9BV68 2-311 partner limits assumed) above
Target sequence in this assay (Q9BVS4 whole entry): as the sequence (Q9BVS4 whole entry) above

[10] = Antiproliferative activity against human MRC5 cells incubated for 72 hrs by CCK8 assay; assay type: toxicity, cell-based
[11] = tested on: ASPC1; assay: Antiproliferative activity against human ASPC1 cells incubated for 72 hrs by CCK8 assay; assay type: functional, cell-based; conditions: ASPC1, 72 h
[12] = tested on: MOLT-4; assay: Antiproliferative activity against human MOLT-4 cells incubated for 72 hrs by CCK8 assay; assay type: functional, cell-based; conditions: MOLT-4, 72 h
[13] = target: T1, E3 ubiquitin-protein ligase RNF126/Serine/threonine-protein kinase RIO2; assay: Molecular glue degradation activity at RNF126/RIOK2 in human MOLT-4 cells assessed as decrease in AKT level at 500 nM incubated for 12 hrs by immunoblot analysis; assay type: cell-based
Target sequence in this assay (Q9BV68 2-311 partner limits assumed): as the sequence (Q9BV68 2-311 partner limits assumed) above
Target sequence in this assay (Q9BVS4 whole entry): as the sequence (Q9BVS4 whole entry) above

[14] = Antiproliferative activity against HEK293 cells incubated for 72 hrs by CCK8 assay; assay type: toxicity, cell-based; conditions: human
[15] = tested on: OCI-Ly3; assay: Antiproliferative activity against human OCILY3 cells incubated for 72 hrs by CCK8 assay; assay type: functional, cell-based; conditions: OCI-Ly3, 72 h
[16] = tested on: MOLT-4; assay: Induction of cell cycle arrest in human MOLT-4 cells assessed as accumulation at G2/M phase at 900 nM incubated for 24 hrs by PI staining based flow cytometry relative to control; assay type: functional
[17] = tested on: MOLT-4; assay: Induction of apoptosis in human MOLT-4 cells at 900 nM incubated for 48 hrs by Annexin V-FITC/PI staining based flow cytometry relative to control; assay type: functional
[18] = tested on: HeLa; assay: Antiproliferative activity against human HeLa cells incubated for 72 hrs by CCK8 assay; assay type: functional, cell-based

SMILES | DC50 [1] [nM] | Emax [2] [%] | other results
COc1ccc(-c2ccc3[nH]c(=O)c4nnn(-c5ccc(N6CCN(C(=O)/C=C/C(=O)c7ccccc7F)CC6)c(C(F)(F)F)c5)c4c3c2)cn1 | 3650 | 62.8 | –
COc1ccc(-c2ccc3[nH]c(=O)c4nnn(-c5ccc(N6CCN(C(=O)C7=CCCC7)CC6)c(C(F)(F)F)c5)c4c3c2)cn1 | 2140 | 82.2 | –
COc1ccc(-c2ccc3[nH]c(=O)c4nnn(-c5ccc(N6CCN(C(=O)/C=C/C(=O)c7ccc(Br)cc7)CC6)c(C(F)(F)F)c5)c4c3c2)cn1 | 2180 | 70.1 | –
COc1ccc(-c2ccc3[nH]c(=O)c4nnn(-c5ccc(N6CCN(C(=O)/C=C/C(=O)c7ccc(OC(F)(F)F)cc7)CC6)c(C(F)(F)F)c5)c4c3c2)cn1 | 1750 | 84.5 | –
COc1ccc(-c2ccc3[nH]c(=O)c4nnn(-c5ccc(N6CCN(C(=O)/C=C/C(=O)c7ccc(OC)c(OC)c7)CC6)c(C(F)(F)F)c5)c4c3c2)cn1 | 1950 | 65 | –
C=CC(=O)N1CCN(c2ccc(-n3nnc4c(=O)[nH]c5ccc(-c6ccc(OC)nc6)cc5c43)cc2C(F)(F)F)CC1 | 4310 | 81.4 | –
COc1ccc(-c2ccc3[nH]c(=O)c4nnn(-c5ccc(N6CCN(C(=O)CCC(=O)c7ccc(F)cc7)CC6)c(C(F)(F)F)c5)c4c3c2)cn1 | > 10000 | – | –
COc1ccc2cc([C@H](C)C(=O)Nc3cc(C)ccn3)ccc2c1 | – | – | Kd [3]: 520 nM
COc1ccc(-c2ccc3[nH]c(=O)c4nnn(-c5ccc(N6CCN(C(=O)/C=C/c7ccc(C(F)(F)F)cc7)CC6)c(C(F)(F)F)c5)c4c3c2)cn1 | > 10000 | – | –
COc1ccc(/C=C/C(=O)N2CCN(c3ccc(-n4nnc5c(=O)[nH]c6ccc(-c7ccc(OC)nc7)cc6c54)cc3C(F)(F)F)CC2)cc1 | > 10000 | – | –
COc1ccc(-c2ccc3[nH]c(=O)c4nnn(-c5ccc(N6CCN(C(=O)/C=C/C(=O)c7ccc([N+](=O)[O-])cc7)CC6)c(C(F)(F)F)c5)c4c3c2)cn1 | 3800 | 68.1 | –
COc1ccc(-c2ccc3[nH]c(=O)c4nnn(-c5ccc(N6CCNCC6)c(C(F)(F)F)c5)c4c3c2)cn1 | – | – | IC50 [4]: 1210 nM; IC50 [5]: 2550 nM; IC50 at 72 h [6]: 2840 nM; IC50 [7]: 2030 nM; IC50 [8]: 1840 nM; Activity [9]: inactive; IC50 at 72 h [10]: 1310 nM; IC50 [11]: 2430 nM; IC50 [12]: 1260 nM; Activity [13]: inactive; IC50 at 72 h [14]: 1940 nM; IC50 [15]: 520 nM; Activity [16]: 29.84%; Activity [17]: 8.03%; IC50 [18]: 1230 nM

More lines, in order of falling DC50 [1], values ahead:

DC50 [1] [nM] | Emax [2] [%] | SMILES | other results
1540 | 75.1 | COc1ccc(-c2ccc3[nH]c(=O)c4nnn(-c5ccc(N6CCN(C(=O)/C=C/C(=O)c7ccc(Cl)cc7)CC6)c(C(F)(F)F)c5)c4c3c2)cn1 | –
1470 | 72.3 | COc1ccc(-c2ccc3[nH]c(=O)c4nnn(-c5ccc(N6CCN(C(=O)/C=C/C(=O)c7ccc(C)cc7)CC6)c(C(F)(F)F)c5)c4c3c2)cn1 | –
1280 | 70.6 | CCOc1ccc(C(=O)/C=C/C(=O)N2CCN(c3ccc(-n4nnc5c(=O)[nH]c6ccc(-c7ccc(OC)nc7)cc6c54)cc3C(F)(F)F)CC2)cc1 | –
1180 | 68.9 | COc1ccc(-c2ccc3[nH]c(=O)c4nnn(-c5ccc(N6CCN(C(=O)/C=C/C(=O)c7ccc(OC(F)F)cc7)CC6)c(C(F)(F)F)c5)c4c3c2)cn1 | –
1100 | 82.2 | COc1ccc(-c2ccc3[nH]c(=O)c4nnn(-c5ccc(N6CCN(C(=O)/C=C/C(=O)c7ccccc7)CC6)c(C(F)(F)F)c5)c4c3c2)cn1 | –
1070 | 66.1 | COc1ccc(-c2ccc3[nH]c(=O)c4nnn(-c5ccc(N6CCN(C(=O)/C=C/C(=O)c7ccc(OC(C)C)cc7)CC6)c(C(F)(F)F)c5)c4c3c2)cn1 | –
1050 | 68.4 | COc1cccc(C(=O)/C=C/C(=O)N2CCN(c3ccc(-n4nnc5c(=O)[nH]c6ccc(-c7ccc(OC)nc7)cc6c54)cc3C(F)(F)F)CC2)c1 | –
1030 | 84.6 | COc1ccc(-c2ccc3[nH]c(=O)c4nnn(-c5ccc(N6CCN(C(=O)/C=C/C(=O)c7ccc(C(F)(F)F)cc7)CC6)c(C(F)(F)F)c5)c4c3c2)cn1 | –
980 | 77.3 | COc1ccc(-c2ccc3[nH]c(=O)c4nnn(-c5ccc(N6CCN(C(=O)/C=C/C(=O)c7ccc(F)c(F)c7)CC6)c(C(F)(F)F)c5)c4c3c2)cn1 | –
790 | 74.1 | COc1ccc(-c2ccc3[nH]c(=O)c4nnn(-c5ccc(N6CCN(C(=O)/C=C/C(=O)c7ccccc7OC)CC6)c(C(F)(F)F)c5)c4c3c2)cn1 | –
690 | 60.1 | COc1ccc(C(=O)/C=C/C(=O)N2CCN(c3ccc(-n4nnc5c(=O)[nH]c6ccc(-c7ccc(OC)nc7)cc6c54)cc3C(F)(F)F)CC2)cc1 | –
